Experimental data as given in PubChem BioAssay (NCI).
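GI50 is the concentration that inhibits growth by half. TGI marks complete inhibition of growth.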

Key:
Test in all cases: NCI anticancer screen, dose series, 384-well format
[1] = tested on: SNB-19 CNS
[2] = tested on: HCT-116 colon
[3] = tested on: SK-MEL-5 melanoma
[4] = tested on: DU-145 prostate
[5] = tested on: SF-268 CNS
[6] = tested on: NCI-H522 lung
[7] = tested on: SK-MEL-2 melanoma
[8] = tested on: MDA-MB-231 breast
[9] = tested on: HL-60(TB) leukemia
[10] = tested on: NCI-H226 lung
[11] = tested on: HOP-62 NSCLC
[12] = tested on: HOP-92 NSCLC
[13] = tested on: NCI/ADR-RES ovarian
[14] = tested on: K-562 leukemia
[15] = tested on: NCI-H23 lung
[16] = tested on: HCT-15 colon
[17] = tested on: LOX IMVI melanoma
[18] = tested on: MDA-MB-468 breast
[19] = tested on: MALME-3M melanoma
[20] = tested on: CCRF-CEM leukemia
[21] = tested on: MOLT-4 leukemia
[22] = tested on: MCF7 breast
[23] = tested on: OVCAR-5 ovarian
[24] = tested on: UACC-257 melanoma
[25] = tested on: NCI-H322M lung
[26] = tested on: OVCAR-3 ovarian
[27] = tested on: CAKI-1 renal
[28] = tested on: IGROV1 ovarian
[29] = tested on: PC-3 prostate
[30] = tested on: BT-549 breast
[31] = tested on: ACHN renal
[32] = tested on: SK-MEL-28 melanoma
[33] = tested on: A549 NSCLC
[34] = tested on: HT29 colon
[35] = tested on: SF-539 CNS
[36] = tested on: T-47D breast
[37] = tested on: TK-10 renal
[38] = tested on: SF-295 CNS
[39] = tested on: COLO 205 colon
[40] = tested on: RXF 393 renal
[41] = tested on: M14 melanoma
[42] = tested on: UO-31 renal
[43] = tested on: MDA-MB-435 melanoma
[44] = tested on: OVCAR-8 ovarian
[45] = tested on: RPMI-8226 leukemia
[46] = tested on: KM12 colon
[47] = tested on: SK-OV-3 ovarian
[48] = tested on: U251 glioblastoma
[49] = tested on: HCC-2998 colon
[50] = tested on: A498 renal
[51] = tested on: SN12C renal
[52] = tested on: SW-620 colon
[53] = tested on: UACC-62 melanoma
[54] = tested on: NCI-H460 NSCLC
[55] = tested on: 786-0 renal
[56] = tested on: SR leukemia
[57] = tested on: OVCAR-4 ovarian

O=P1(S)OC[C@H]2O[C@@H]3[C@H](F)[C@@H]2OP(O)(=S)OC[C@H]2O[C@H]([C@H](F)[C@@H]2O1)n1cnc2c(ncnc21)NC/C=C/CNc1ncnc2c1ncn23 (some centres undefined)
GI50 [1]: > 100 µM | TGI [1]: > 100 µM | GI50 [2]: > 100 µM | TGI [2]: > 100 µM | GI50 [3]: > 100 µM | TGI [3]: > 100 µM | GI50 [4]: > 100 µM | TGI [4]: > 100 µM | GI50 [5]: > 100 µM | TGI [5]: > 100 µM | GI50 [6]: 7.35 µM | TGI [6]: 44.2 µM | GI50 [7]: 2.82 µM | TGI [7]: 52 µM | GI50 [8]: > 100 µM | TGI [8]: > 100 µM | GI50 [9]: 0.189 µM | TGI [9]: 0.4 µM | GI50 [10]: 0.0932 µM | TGI [10]: 0.361 µM | GI50 [11]: > 100 µM | TGI [11]: > 100 µM | GI50 [12]: > 100 µM | TGI [12]: > 100 µM | GI50 [13]: > 100 µM | TGI [13]: > 100 µM | GI50 [14]: > 100 µM | TGI [14]: > 100 µM | GI50 [15]: > 100 µM | TGI [15]: > 100 µM | GI50 [16]: > 100 µM | TGI [16]: > 100 µM | GI50 [17]: > 100 µM | TGI [17]: > 100 µM | GI50 [18]: 2.24 µM | TGI [18]: 7.62 µM | GI50 [19]: > 100 µM | TGI [19]: > 100 µM | GI50 [20]: 39.2 µM | TGI [20]: > 100 µM | GI50 [21]: 5.67 µM | TGI [21]: 20.6 µM | GI50 [22]: > 100 µM | TGI [22]: > 100 µM | GI50 [23]: > 100 µM | TGI [23]: > 100 µM | GI50 [24]: 0.151 µM | TGI [24]: 19.3 µM | GI50 [25]: > 100 µM | TGI [25]: > 100 µM | GI50 [26]: 4.99 µM | TGI [26]: 38.8 µM | GI50 [27]: > 100 µM | TGI [27]: > 100 µM | GI50 [28]: > 100 µM | TGI [28]: > 100 µM | GI50 [29]: > 100 µM | TGI [29]: > 100 µM | GI50 [30]: 9.28 µM | TGI [30]: > 100 µM | GI50 [31]: > 100 µM | TGI [31]: > 100 µM | GI50 [32]: > 100 µM | TGI [32]: > 100 µM | GI50 [33]: > 100 µM | TGI [33]: > 100 µM | GI50 [34]: 19.2 µM | TGI [34]: > 100 µM | GI50 [35]: 7.46 µM | TGI [35]: > 100 µM | GI50 [36]: > 100 µM | TGI [36]: > 100 µM | GI50 [37]: > 100 µM | TGI [37]: > 100 µM | GI50 [38]: > 100 µM | TGI [38]: > 100 µM | GI50 [39]: 48.6 µM | TGI [39]: > 100 µM | GI50 [40]: 0.0445 µM | TGI [40]: 19.7 µM | GI50 [41]: > 100 µM | TGI [41]: > 100 µM | GI50 [42]: > 100 µM | TGI [42]: > 100 µM | GI50 [43]: 2.97 µM | TGI [43]: 46 µM | GI50 [44]: > 100 µM | TGI [44]: > 100 µM | GI50 [45]: 22.1 µM | TGI [45]: > 100 µM | GI50 [46]: 51.2 µM | TGI [46]: > 100 µM | GI50 [47]: 24.3 µM | TGI [47]: > 100 µM | GI50 [48]: > 100 µM | TGI [48]: > 100 µM | GI50 [49]: > 100 µM | TGI [49]: > 100 µM | GI50 [50]: > 100 µM | TGI [50]: > 100 µM | GI50 [51]: > 100 µM | TGI [51]: > 100 µM | GI50 [52]: > 100 µM | TGI [52]: > 100 µM | GI50 [53]: > 100 µM | TGI [53]: > 100 µM | GI50 [54]: > 100 µM | TGI [54]: > 100 µM | GI50 [55]: > 100 µM | TGI [55]: > 100 µM | GI50 [56]: 0.0295 µM | TGI [56]: 0.101 µM | GI50 [57]: 11.3 µM | TGI [57]: > 100 µM
